Test results from patent publication US10750742B2, “Pesticidally active pyrazole derivatives” (SYNGENTA PARTICIPATIONS AG, priority 2015, dated 2020).
Like-named read-outs stand apart in the source and are kept apart here.

What was measured:
[1] = tested on: Plutella xylostella; test: Plutella xylostella (diamond back moth), artificial diet test; assay type: in vivo; settings: 120 h, read-out: control (mortality and growth inhibition)
Procedure: Plutella xylostella (Diamond Back Moth):
(§1) 24-well microtiter plates with artificial diet were treated with aqueous test solutions prepared from 10′000 ppm DMSO stock solutions by pipetting. After drying, the plates were infested with L2 larvae (10 to 15 per well). The samples were assessed for mortality and growth inhibition in comparison to untreated samples 5 days after infestation.

[2] = tested on: Spodoptera littoralis; test: Spodoptera littoralis (Egyptian cotton leaf worm), cotton leaf disc spray test; assay type: in vivo; settings: foliar, 72 h, read-out: control (at least one of mortality, anti-feedant effect, growth inhibition); for percent control (mortality, anti-feedant effect or growth inhibition) at 200 ppm: application rate 200 ppm, L1 larvae, 3 days after infestation
Procedure, shortened: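 Cotton leaf discs on agar were sprayed with aqueous dilutions of 10′000 ppm DMSO stocks, dried and infested with five L1 larvae. Mortality, anti-feedant effect and growth inhibition were scored against untreated samples 3 days after infestation. Control = any of these higher than untreated.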

[3] = tested on: Thrips tabaci; test: Thrips tabaci (onion thrips), sunflower leaf disc test; assay type: in vivo; settings: foliar, 144 h, read-out: control (mortality)
Procedure: Thrips tabaci (Onion Thrips):
(§2) Sunflower leaf discs were placed on agar in 24-well microtiter plates and sprayed with aqueous test solutions prepared from 10′000 ppm DMSO stock solutions. After drying the leaf discs were infested with a thrips population of mixed ages. The samples were assessed for mortality 6 days after infestation.

[4] = tested on: Tetranychus urticae; test: Tetranychus urticae (two-spotted spider mite), bean leaf disc test; assay type: in vivo; settings: foliar, 192 h, read-out: control (mortality on mixed population, mobile stages)
Procedure: Tetranychus urticae (Two-Spotted Spider Mite):
as §2, with “Bean” for “Sunflower”, “discs” for “discs were placed”, “were” for “and”, “mite” for “thrips”, “on mixed population (mobile stages) 8” for “6”

[5] = tested on: Myzus persicae; test: Myzus persicae (green peach aphid), sucrose solution / Parafilm test; assay type: in vivo; settings: 120 h
Procedure, shortened: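 Compound mixed into sucrose solution at 12.5 ppm under stretched Parafilm; aphid-infested pea seedlings set on the membrane and plate inverted so insects feed through it. Mortality assessed 5 days after infestation.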

[6] = tested on: Myzus persicae; test: Myzus persicae (green peach aphid), sunflower leaf disc spray test; assay type: in vivo; settings: foliar, 144 h
Procedure: Myzus persicae (Green Peach Aphid):
Sunflower leaf discs were placed on agar in a 24-well microtiter plate and sprayed with test solutions at an application rate of 200 ppm. After drying, the leaf discs were infested with an aphid population of mixed ages. After an incubation period of 6 DAT, samples were checked for mortality. The following compounds gave at least 80% mortality of Myzus persicae: compounds 1,2, 3, 4, 5, 6, 11, 12, 15, 17, 18, 19, 20, 23, 24, 25, 26, 27, 30, 32, 33, 34 35, 41, 43, 44, 47, 50, 55, 58, 59, 60, 61, 62, 63, 64, 65 and 66.

[7] = tested on: Diabrotica balteata; test: Diabrotica balteata (corn root worm), maize sprout test; assay type: in vivo; settings: 96 h, read-out: control (mortality and growth inhibition)
Procedure: Diabrotica balteata, (Corn Root Worm)
as §1, with “Maize sprouts, placed on an agar layer in 24-well” for “24-well”, “plates” for “plates with artificial diet”, “spraying.” for “pipetting.”, “(6” for “(10”, “10” for “15”, “4” for “5”

[8] = tested on: Euschistus heros; test: Euschistus heros (neotropical brown stink bug), soybean leaf test; assay type: in vivo; settings: 120 h, read-out: effect in at least one of the two categories (mortality or growth inhibition); for percent effect (mortality or growth inhibition) at 200 ppm: application rate 200 ppm, N2 nymphs, 5 days after infestation
Procedure: Euschistus heros (Neotropical Brown Stink Bug):
Soybean leaves on agar in 24-well microtiter plates were sprayed with aqueous test solutions prepared from 10′000 ppm DMSO stock solutions. After drying the leaves were infested with N2 nymphs. The samples were assessed for mortality and growth inhibition in comparison to untreated samples 5 days after infestation.

[9] = tested on: Thrips tabaci; test: Comparison: insecticidal activity against Thrips tabaci, sunflower leaf discs; assay type: in vivo; settings: 6 days after infestation; for mortality at 0.05 ppm / mortality at 0.2 ppm / mortality at 0.8 ppm / mortality at 3 ppm / mortality at 12.5 ppm / mortality at 0.781 ppm / mortality at 3.12 ppm / mortality at 50 ppm / mortality at 200 ppm: Thrips tabaci, foliar, 144 h
Procedure: (§3) Biological Comparison Data:
(§4) Compound A and B are disclosed in WO2014/122083 as example (Ic-1) (p. 76) and (lc-2) (p. 82, Table 3). The activities of compounds A and B to treat different pests are compared with the activities of compound 4, 6, 15 and 35 according to the present invention. The tests are carried out at different concentrations (ppm).
b) Insecticidal Activity Against Thrips tabaci (Onion Thrips):
as §2

[10] = tested on: Spodoptera littoralis; test: Comparison: insecticidal activity against Spodoptera littoralis, larvicide L-3, feeding/contact, soybean plants; assay type: in vivo; settings: 120 h
Procedure: as §3, §4
a) Insecticidal Activity Against Spodoptera littoralis (Egyptian Cotton Leaf Worm, Larvicide L-3, Feeding/Contact)
Soybean plants were sprayed with diluted test solutions in an application chamber. The plants (2 replicates) were infested with 10 L3 larvae 1 day after treatment. Samples were checked 5 days after infestation for mortality, feeding behavior, and growth regulation.

[11] = application rate 200 ppm, L2 larvae, 5 days after infestation
[12] = application rate 200 ppm, mixed ages, 6 days after infestation
[13] = application rate 200 ppm, 8 days after infestation
[14] = test rate of 12 ppm, sucrose solution, 5 days after infestation, read-out: mortality
[15] = application rate 200 ppm, mixed ages, 6 DAT, read-out: mortality
[16] = application rate 200 ppm, L2 larvae, 4 days after infestation
[17] = 12.5 ppm, read-out: Mortality (%)

With CN1N=C(OC(F)(F)C(F)C(F)(F)F)C(C(F)(F)F)C1n1cc(-c2cc(F)c(Cl)c(C(=O)NC3CC3)c2)cn1 (stereo not shown) the melting point was 114 to 116 °C.

Work on Cn1nc(OC(F)(F)C(F)C(F)(F)F)c(C(F)(F)F)c1-n1cc(-c2cccc(C(=O)NC3(C#N)CC3)c2F)cn1 (stereo not shown) yielded a melting point of 59 to 61 °C.

For Cn1nc(OC(F)C(F)(F)C(F)(F)F)c(C(F)(F)F)c1-n1cc(-c2ccc(Cl)c(C(=O)NC3(C#N)CC3)c2)cn1 (stereo not shown) [compound 4], the mortality at 200 ppm [1, 11] was ≥ 80%, the percent control (mortality, anti-feedant effect or growth inhibition) at 200 ppm [2] was ≥ 80% and the mortality at 200 ppm [3, 12] was ≥ 80%. For the same compound, the mortality at 200 ppm [4, 13] was ≥ 80%, the mortality at 12 ppm [5, 14] was ≥ 80% and the mortality at 200 ppm [6, 15] was ≥ 80%. The mortality at 200 ppm [7, 16] was ≥ 80%, the percent effect (mortality or growth inhibition) at 200 ppm [8] was ≥ 80% and the mortality at 0.05 ppm ([9]; read-out: Mortality (%)) was 65%. The mortality at 0.2 ppm ([9]; read-out: Mortality (%)) was 90%, the mortality at 0.8 ppm ([9]; read-out: Mortality (%)) was 100% and the mortality at 3 ppm ([9]; read-out: Mortality (%)) was 100%. For the same compound, the mortality at 12.5 ppm [9, 17] was 100%.

For Cn1nc(OC(F)(F)C(F)(F)C(F)(F)F)c(C(F)(F)F)c1-n1cc(-c2ccc(Cl)c(C(=O)NC3(C#N)CC3)c2)cn1 [compound 35], the mortality at 200 ppm [1] was ≥ 80%, the mortality at 200 ppm [2] was ≥ 80% and the mortality at 200 ppm [3] was ≥ 80%. The mortality at 200 ppm [4] was ≥ 80%, the mortality at 12 ppm [5] was ≥ 80% and the mortality at 200 ppm [6] was ≥ 80%. The mortality at 0.2 ppm [10] was 0%, the mortality at 0.8 ppm [10] was 100% and the mortality at 3 ppm [10] was 100%. For the same compound, the mortality at 12.5 ppm [10] was 100%, the mortality at 200 ppm [7] was ≥ 80% and the percent control (mortality or growth inhibition) at 200 ppm [8] was ≥ 80%.

Cn1nc(C(F)(F)C(F)(F)F)c(C(F)(F)F)c1-n1cc(-c2ccc(Cl)c(C(=O)NC3CC3)c2)cn1 [A, reference compound] gave a mortality at 0.2 ppm [10] of 0%, a mortality at 0.8 ppm [10] of 15% and a mortality at 3 ppm [10] of 55%. For the same compound, the mortality at 12.5 ppm [10] was 85%.

In the case of Cn1nc(OC(F)(F)C(F)C(F)(F)F)c(C(F)(F)F)c1-n1cc(-c2cc(Cl)c(Cl)c(C(=O)NC3(C#N)CC3)c2)cn1 (stereo not shown), the melting point is reported as 162 to 165 °C.

With Cn1nc(OC(F)(F)C(F)C(F)(F)F)c(C(F)(F)F)c1-n1cc(-c2cc(C(=O)NC3CC3)c(Cl)cc2F)cn1 (stereo not shown) the melting point was 68 to 70 °C.

Cn1nc(C(F)(F)C(F)(F)F)c(C(F)(F)F)c1-n1cc(-c2ccc(Cl)c(C(=O)NC3(C#N)CC3)c2)cn1 [B, reference compound] showed a mortality at 0.2 ppm [10] of 20%, a mortality at 0.8 ppm [10] of 75% and a mortality at 3 ppm [10] of 100%. The mortality at 12.5 ppm [10] was 100%, the “Mortality (%)” value ([9]; 12.5 ppm) was 100% and the mortality at 0.05 ppm [9] was 0%. For the same compound, the mortality at 0.2 ppm [9] was 25%, the mortality at 0.781 ppm [9] was 0% and the mortality at 0.8 ppm [9] was 90%. It also gave a mortality at 3 ppm [9] of 100%, a mortality at 3.12 ppm [9] of 25% and a mortality at 12.5 ppm ([9]; 12.5 ppm) of 90%. For the same compound, the mortality at 50 ppm [9] was 100% and the mortality at 200 ppm [9] was 100%.

With Cn1nc(OC(F)(F)C(F)OC(F)(F)F)c(C(F)(F)F)c1-n1cc(-c2ccc(Cl)c(C(=O)NC3(C#N)CC3)c2)cn1 (stereo not shown) [compound 15] the mortality at 200 ppm [1, 11] was ≥ 80%, the percent control (mortality, anti-feedant effect or growth inhibition) at 200 ppm [2] was ≥ 80% and the mortality at 200 ppm [3, 12] was ≥ 80%. For the same compound, the mortality at 200 ppm [4, 13] was ≥ 80%, the mortality at 12 ppm [5, 14] was ≥ 80% and the mortality at 200 ppm [6, 15] was ≥ 80%. The mortality at 200 ppm [7, 16] was ≥ 80%, the percent effect (mortality or growth inhibition) at 200 ppm [8] was ≥ 80% and the mortality at 0.781 ppm ([9]; read-out: Mortality (%)) was 0%. For the same compound, the mortality at 3.12 ppm ([9]; read-out: Mortality (%)) was 90%, the mortality at 12.5 ppm [9, 17] was 90% and the mortality at 50 ppm ([9]; read-out: Mortality (%)) was 100%. The mortality at 200 ppm ([9]; read-out: Mortality (%)) was 100%.

In the case of CN1N=C(OC(F)(F)C(F)C(F)(F)F)C(C(F)(F)F)C1n1cc(-c2cc(F)c(Cl)c(C(=O)NC3(C#N)CC3)c2)cn1 (stereo not shown), the melting point is reported as 82 to 84 °C.

In the case of Cn1nc(OC(F)(F)C(F)C(F)(F)F)c(C(F)(F)F)c1-n1cc(-c2ccc(Cl)c(C(=O)NC3CC3)c2)cn1 (stereo not shown) [compound 6], the mortality at 200 ppm [1, 11] is reported as ≥ 80%, the percent control (mortality, anti-feedant effect or growth inhibition) at 200 ppm [2] is reported as ≥ 80% and the mortality at 200 ppm [3, 12] is reported as ≥ 80%. The mortality at 200 ppm [4, 13] was ≥ 80%, the mortality at 12 ppm [5, 14] was ≥ 80% and the mortality at 200 ppm [6, 15] was ≥ 80%. It also gave a mortality at 0.2 ppm ([10]; 0.2 ppm, L3 larvae, 5 days after infestation, read-out: Mortality (%)) of 0%, a mortality at 0.8 ppm ([10]; 0.8 ppm, L3 larvae, 5 days after infestation, read-out: Mortality (%)) of 0% and a mortality at 3 ppm ([10]; 3.0 ppm, L3 larvae, 5 days after infestation, read-out: Mortality (%)) of 100%. For the same compound, the mortality at 12.5 ppm ([10]; 12.5 ppm, L3 larvae, 5 days after infestation, read-out: Mortality (%)) was 100%, the mortality at 200 ppm [7, 16] was ≥ 80% and the percent effect (mortality or growth inhibition) at 200 ppm [8] was ≥ 80%.

For Cn1nc(OC(F)(F)C(F)C(F)(F)F)c(C(F)(F)F)c1-n1cc(-c2ccc(F)c(C(=O)NC3CC3)c2)cn1 (stereo not shown) [compound 60], the mortality at 200 ppm [1, 11] was ≥ 80%, the percent control (mortality, anti-feedant effect or growth inhibition) at 200 ppm [2] was ≥ 80% and the mortality at 200 ppm [3, 12] was ≥ 80%. For the same compound, the mortality at 200 ppm [4, 13] was ≥ 80%, the mortality at 12 ppm [5, 14] was ≥ 80% and the mortality at 200 ppm [6, 15] was ≥ 80%. For the same compound, the mortality at 200 ppm [7, 16] was ≥ 80% and the percent effect (mortality or growth inhibition) at 200 ppm [8] was ≥ 80%.

Work on Cn1nc(OC(F)(F)C(F)C(F)(F)F)c(C(F)(F)F)c1-n1cc(-c2cc(Cl)c(Cl)c(C(=O)NC3CC3)c2)cn1 (stereo not shown) yielded a melting point of 67 to 70 °C.
